In patent US8114880B2, “Piperidine or piperazine substituted tetrahydro-naphthalene-1-carboxylic acid MTP inhibiting compounds” (Janssen Pharmaceutica N.V., priority 2006, dated 2012):

Molecular target: MTP (Homo sapiens, UniProt P55157)
Test: MTP assay (triglyceride transfer from donor to acceptor vesicles)
Type: biochemical
Conditions: MTP activity, percent triglyceride transfer from donor to acceptor vesicles, 37° C.
Method: MTP activity was measured using an assay similar to one described by J. R. Wetterau and D. B. Zilversmit in Chemistry and Physics of Lipids, 38, 205-222 (1985). To prepare the donor and acceptor vesicles, the appropriate lipids in chloroform were put into a glass test tube and dried under a stream of nitrogen. A buffer containing 15 mM Tris-HCl pH 7.5, 1 mM EDTA, 40 mM NaCl, 0.02% NaN3 (assay buffer) was added to the dried lipid. The mixture was vortexed briefly and the lipids were then allowed to hydrate for 20 minutes on ice. Vesicles were then prepared by bath sonication (Branson 2200) at room temperature for maximum 15 minutes. Butylated hydroxytoluene was included in all vesicle preparations at a concentration of 0.1%. The lipid transfer assay mixture contained donor vesicles (40 nmol phosphatidylcholine, 7.5 mol % of cardiolipin and 0.25 mol % glycerol tri [1-^14C]-oleate), acceptor vesicles (240 nmol phosphatidylcholine) and 5 mg BSA in a total volume of 675 μl in a 1.5 ml microcentrifuge tube. Test compounds were added dissolved in DMSO (0.13% final concentration). After 5 minutes of pre-incubation at 37° C., the reaction was started by the addition of MTP in 100 μl dialysis buffer. The reaction was stopped by the addition of 400 μl DEAE-52 cellulose pre-equilibrated in 15 mM Tris-HCl pH 7.5, 1 mM EDTA, 0.02% NaN3 (1:1, vol/vol). The mixture was agitated for 4 minutes and centrifuged for 2 minutes at maximum speed in an Eppendorf centrifuge (4° C.) to pellet the DEAE-52-bound donor vesicles. An aliquot of the supernatant containing the acceptor liposomes was counted and the [^14C]-counts were used to calculate the percent triglyceride transfer from donor to acceptor vesicles.

Sequence of MTP (P55157 19-894, species assumed): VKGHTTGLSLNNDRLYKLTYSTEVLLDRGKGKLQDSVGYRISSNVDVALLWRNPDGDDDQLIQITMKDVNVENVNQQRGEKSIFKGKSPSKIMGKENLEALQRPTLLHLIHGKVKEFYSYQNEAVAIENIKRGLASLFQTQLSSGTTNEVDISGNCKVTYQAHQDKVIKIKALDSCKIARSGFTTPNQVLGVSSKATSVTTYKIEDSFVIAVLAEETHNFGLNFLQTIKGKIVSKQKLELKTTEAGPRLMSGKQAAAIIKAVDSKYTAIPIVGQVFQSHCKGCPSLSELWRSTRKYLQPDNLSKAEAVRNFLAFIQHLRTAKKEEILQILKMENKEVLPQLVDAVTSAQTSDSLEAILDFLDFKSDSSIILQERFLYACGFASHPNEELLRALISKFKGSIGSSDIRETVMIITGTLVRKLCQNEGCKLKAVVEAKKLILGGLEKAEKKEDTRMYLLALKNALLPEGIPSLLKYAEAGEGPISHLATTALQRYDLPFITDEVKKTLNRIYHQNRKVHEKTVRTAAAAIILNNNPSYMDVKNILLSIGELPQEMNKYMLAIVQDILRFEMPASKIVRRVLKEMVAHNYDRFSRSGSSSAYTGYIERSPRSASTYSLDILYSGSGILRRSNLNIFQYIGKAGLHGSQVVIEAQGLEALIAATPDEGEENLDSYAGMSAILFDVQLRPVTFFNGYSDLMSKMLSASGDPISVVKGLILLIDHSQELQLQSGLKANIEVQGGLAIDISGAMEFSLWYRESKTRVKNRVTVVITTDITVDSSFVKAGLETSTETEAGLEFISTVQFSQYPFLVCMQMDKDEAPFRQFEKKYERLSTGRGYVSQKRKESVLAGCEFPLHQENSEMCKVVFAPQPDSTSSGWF
Sequence of MTP (P07237 18-508 partner, species assumed): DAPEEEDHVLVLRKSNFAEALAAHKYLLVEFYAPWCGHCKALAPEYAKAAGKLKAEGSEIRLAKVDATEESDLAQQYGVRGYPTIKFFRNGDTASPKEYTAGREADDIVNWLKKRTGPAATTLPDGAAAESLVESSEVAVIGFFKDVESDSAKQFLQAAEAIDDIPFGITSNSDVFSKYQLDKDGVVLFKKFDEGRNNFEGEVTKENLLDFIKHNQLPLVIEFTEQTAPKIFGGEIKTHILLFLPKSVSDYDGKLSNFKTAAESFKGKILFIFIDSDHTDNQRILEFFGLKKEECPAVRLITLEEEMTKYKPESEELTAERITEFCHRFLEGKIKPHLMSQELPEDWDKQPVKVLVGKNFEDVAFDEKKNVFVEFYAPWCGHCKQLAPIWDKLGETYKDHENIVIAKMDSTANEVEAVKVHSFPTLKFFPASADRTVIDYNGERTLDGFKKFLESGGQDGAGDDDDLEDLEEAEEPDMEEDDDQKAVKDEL

Q: Which IC50 does the source give for `CCOC(=O)CC(C)NC(=O)[C@@]1(c2ccccc2)CC[C@H](C(=O)N2CCC(NC(=O)c3cccn(C)c3=O)CC2)c2ccccc21` (mixture of isomers) [Co. No. 223] here?
A: The IC50 was 1790 nM.

Q: For `CCNC(=O)[C@]1(c2ccccc2)CC[C@H](C(=O)N2CCC(NC(=O)c3ccccc3OC)CC2)c2ccccc21` [Co. No. 9], which IC50 is on record?
A: Its IC50 is 689 nM.

Q: Which IC50 does the source give for `C=CCOC(=O)[C@]1(c2ccccc2)CC[C@H](C(=O)N2CCC(NC(=O)c3ccccc3)CC2)c2ccccc21` [Co. No. 12] here?
A: The IC50 was 778 nM.

Q: Which IC50 does the source give for `CCNC(=O)[C@]1(c2ccccc2)CC[C@@H](CN2CCC(NC(=O)c3ccccc3)CC2)c2ccccc21` [Co. No. 17] here?
A: The IC50 was 277 nM.

Q: `CCOC(=O)[C@]1(c2ccccc2)CC[C@H](C(=O)N2CCN(C(=O)c3ccccc3)CC2)c2ccccc21` [Co. No. 29] was tested. Which IC50 did it give?
A: Its IC50 is 3340 nM.

Q: For `CCOC(=O)[C@]1(c2ccccc2)CC[C@H](C(=O)N2CCN(C(=O)c3ccccc3OC)CC2)c2ccccc21` [Co. No. 30], which IC50 is on record?
A: The IC50 was 601 nM.

Q: Which IC50 does the source give for `CCOC(=O)[C@]1(c2ccccc2)CC[C@H](C(=O)N2CCN(C(=O)c3ccccc3-c3ccc(C(F)(F)F)cc3)CC2)c2ccccc21` [Co. No. 31] here?
A: Its IC50 is 348 nM.

Q: For `COc1ccccc1C(=O)NC1CCN(C(=O)[C@H]2CC[C@](C(N)=O)(c3ccccc3)c3ccccc32)CC1` [Co. No. 37], which IC50 is on record?
A: The IC50 was 7830 nM.

Q: With `CCNC(=O)[C@]1(c2ccccc2)CC[C@@H](C(=O)N2CCC(NC(=O)c3ccccc3OC)CC2)c2ccccc21` [Co. No. 38] as the molecule, how does the IC50 read?
A: The IC50 was 3820 nM.

Q: With `COC(=O)[C@]1(c2ccccc2)CC[C@@H](C(=O)N2CCC(NC(=O)c3cc(S(N)(=O)=O)ccc3OC)CC2)c2ccccc21` [Co. No. 52] as the molecule, how does the IC50 read?
A: Its IC50 is 627 nM.

Q: How did the IC50 turn out when `COC(=O)[C@]1(c2ccccc2)CC[C@@H](C(=O)N2CCC(NC(=O)c3ccccc3OC)CC2)c2ccccc21` [Co. No. 60] was run?
A: The IC50 was 2.51 nM.

Q: For `CCOC(=O)[C@H](CO)NC(=O)[C@@]1(c2ccccc2)CC[C@H](C(=O)N2CCC(NC(=O)c3ccccc3OC)CC2)c2ccccc21` [Co. No. 71], which IC50 is on record?
A: Its IC50 is 493 nM.

Q: How did the IC50 turn out when `CCOC(=O)[C@@H]1CCCN1C(=O)[C@@]1(c2ccccc2)CC[C@H](C(=O)N2CCC(NC(=O)c3ccccc3OC)CC2)c2ccccc21` [Co. No. 76] was run?
A: Its IC50 is 326 nM.

Q: How did the IC50 turn out when `CCOC(=O)[C@H]1CCCN1C(=O)[C@@]1(c2ccccc2)CC[C@H](C(=O)N2CCC(NC(=O)c3ccccc3OC)CC2)c2ccccc21` [Co. No. 77] was run?
A: The IC50 was 217 nM.

Q: `COC(=O)[C@@H]1C[C@@H](O)CN1C(=O)[C@@]1(c2ccccc2)CC[C@H](C(=O)N2CCC(NC(=O)c3ccccc3OC)CC2)c2ccccc21` [Co. No. 78] was tested. Which IC50 did it give?
A: Its IC50 is 3820 nM.

Q: With `COc1ccccc1C(=O)NC1CCN(C(=O)[C@H]2CC[C@@](C(=O)N(C)CC(=O)OC(C)(C)C)(c3ccccc3)c3ccccc32)CC1` [Co. No. 87] as the molecule, how does the IC50 read?
A: The IC50 was 11.7 nM.

Q: For `COc1ccccc1C(=O)NC1CCN(C(=O)[C@H]2CC[C@@](C(=O)N3C[C@H](OC(C)(C)C)C[C@H]3C(=O)OC(C)(C)C)(c3ccccc3)c3ccccc32)CC1` [Co. No. 91], which IC50 is on record?
A: The IC50 was over 100 nM.

Q: `COc1ccccc1C(=O)NC1CCN(C(=O)[C@H]2CC[C@@](C(=O)N3C[C@H](O)C[C@H]3C(=O)O)(c3ccccc3)c3ccccc32)CC1` [Co. No. 92] was tested. Which IC50 did it give?
A: Its IC50 is over 10000 nM.

Q: For `COc1ccccc1C(=O)NC1CCN(C(=O)[C@H]2CC[C@@](C(=O)N[C@H](C)C(=O)OC(C)(C)C)(c3ccccc3)c3ccccc32)CC1` [Co. No. 93], which IC50 is on record?
A: Its IC50 is 9.33 nM.

Q: Which IC50 does the source give for `COc1ccccc1C(=O)NC1CCN(C(=O)[C@H]2CC[C@@](C(=O)N3CCCC3C(=O)OC(C)(C)C)(c3ccccc3)c3ccccc32)CC1` (some centres unmarked) [Co. No. 94] here?
A: Its IC50 is 210 nM.

Q: `COc1ccccc1C(=O)NC1CCN(C(=O)[C@H]2CC[C@@](C(=O)N[C@@H](C(=O)OC(C)(C)C)c3ccccc3)(c3ccccc3)c3ccccc32)CC1` [Co. No. 95] was tested. Which IC50 did it give?
A: The IC50 was 140 nM.

Q: `COc1ccccc1C(=O)NC1CCN(C(=O)[C@H]2CC[C@@](C(=O)N[C@H](C)C(=O)O)(c3ccccc3)c3ccccc32)CC1` [Co. No. 97] was tested. Which IC50 did it give?
A: The IC50 was 4120 nM.

Q: How did the IC50 turn out when `COc1ccccc1C(=O)NC1CCN(C(=O)[C@H]2CC[C@@](C(=O)N3CCC[C@@H]3C(=O)O)(c3ccccc3)c3ccccc32)CC1` [Co. No. 98] was run?
A: The IC50 was 4750 nM.
